pIC50: −log10 of the molar value.

Sequence of CD73 (P21589 27-574): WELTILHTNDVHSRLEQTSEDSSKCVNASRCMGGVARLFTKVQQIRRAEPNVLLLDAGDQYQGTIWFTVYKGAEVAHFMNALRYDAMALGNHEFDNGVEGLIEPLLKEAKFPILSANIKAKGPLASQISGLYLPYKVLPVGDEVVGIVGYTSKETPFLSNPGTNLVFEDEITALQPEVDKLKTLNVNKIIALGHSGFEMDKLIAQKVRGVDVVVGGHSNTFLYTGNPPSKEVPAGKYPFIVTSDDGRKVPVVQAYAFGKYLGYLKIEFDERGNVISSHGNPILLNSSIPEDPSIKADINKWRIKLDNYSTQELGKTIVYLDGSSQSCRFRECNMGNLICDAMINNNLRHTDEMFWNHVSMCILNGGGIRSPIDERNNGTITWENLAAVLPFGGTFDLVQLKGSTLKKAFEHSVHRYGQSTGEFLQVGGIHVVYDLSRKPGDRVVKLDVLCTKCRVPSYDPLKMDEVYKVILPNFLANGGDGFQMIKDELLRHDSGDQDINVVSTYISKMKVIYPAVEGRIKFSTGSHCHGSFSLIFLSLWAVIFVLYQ

The assay addresses CD73 (Homo sapiens (Human), UniProt P21589). Kind of assay: Biochemical assay: inhibition of CD73 activity (AMP hydrolysis, Malachite Green readout). Particulars: CD73 0.3208 nM, AMP 15 μM, 25 mM Tris-HCl pH 7.4, RT, absorbance 620 nm. The procedure, abridged:
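Phosphate from AMP hydrolysis (15 μM AMP, 10 min, RT) was detected by Malachite Green absorbance to give IC50s. Enzyme at 320 pM was first exposed 15 min to compounds, dosed from 100 μM in ½-log steps, in Tris pH 7.4 buffer with MgCl2, Brij-35 and BSA.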
`O=P(O)(O)COC[C@H]1O[C@@H](n2nnc3c(NCc4cccc(Cl)c4)cc(Cl)nc32)[C@H](O)[C@@H]1O` [Example 22, ((((2R,3S,4R,5R)-5-(5-chloro-7-((3-chlorobenzyl)amino)-3H-[1,2,3]triazolo[4,5-b]pyridin-3-yl)-3,4-dihydroxytetrahydrofuran-2-yl)methoxy)methyl)phosphonic acid] gave a negative-log IC50 (pIC50) of at least 7.00.

Compound `O=P(O)(O)COC[C@H]1O[C@@H](n2nnc3c(NC4CCC4)cc(Cl)nc32)[C@H](O)[C@@H]1O` [Example 23, ((((2R,3S,4R,5R)-5-(5-chloro-7-(cyclobutylamino)-3H-[1,2,3]triazolo[4,5-b]pyridin-3-yl)-3,4-dihydroxytetrahydrofuran-2-yl)methoxy)methyl)phosphonic acid] showed a pIC50 of at least 7.00.

The compound `O=P(O)(O)COC[C@H]1O[C@@H](n2nnc3c(NCC4CCC4)cc(Cl)nc32)[C@H](O)[C@@H]1O` [Example 24, ((((2R,3S,4R,5R)-5-(5-chloro-7-((cyclobutylmethyl)amino)-3H-[1,2,3]triazolo[4,5-b]pyridin-3-yl)-3,4-dihydroxytetrahydrofuran-2-yl)methoxy)methyl)phosphonic acid] gave a negative logarithm of the IC50 (pIC50) of at least 7.00.

Regarding `O=P(O)(O)CS(=O)(=O)C[C@H]1O[C@@H](n2nnc3c(NCC4CC4)cc(Cl)nc32)[C@H](O)[C@@H]1O` [Example 25, (((((2S,3S,4R,5R)-5-(5-chloro-7-((cyclopropylmethyl)amino)-3H-[1,2,3]triazolo[4,5-b]pyridin-3-yl)-3,4-dihydroxytetrahydrofuran-2-yl)methyl)sulfonyl)methyl)phosphonic acid], the pIC50 is at least 7.00.

In turn, `O=P(O)(O)COC[C@H]1O[C@@H](n2nnc3c(NCc4ccccc4Cl)cc(Cl)nc32)[C@H](O)[C@@H]1O` [Example 26, ((((2R,3S,4R,5R)-5-(5-chloro-7-((2-chlorobenzyl)amino)-3H-[1,2,3]triazolo[4,5-b]pyridin-3-yl)-3,4-dihydroxytetrahydrofuran-2-yl)methoxy)methyl)phosphonic acid] had a pIC50 of at least 7.00.

Turning to `O=P(O)(O)CS(=O)(=O)C[C@H]1O[C@@H](n2nnc3c(NCc4ccccc4Cl)cc(Cl)nc32)[C@H](O)[C@@H]1O` [Example 27, (((((2S,3S,4R,5R)-5-(5-chloro-7-((2-chlorobenzyl)amino)-3H-[1,2,3]triazolo[4,5-b]pyridin-3-yl)-3,4-dihydroxytetrahydrofuran-2-yl)methyl)sulfonyl)methyl)phosphonic acid], the negative logarithm of the IC50 (pIC50) is at least 7.00.

Compound `O=C(O)C(OC[C@H]1O[C@@H](n2ncc3c(NC4CCCC4)nc(Cl)nc32)[C@H](O)[C@@H]1O)P(=O)(O)O` (stereo partly drawn) [Example 28, 2-(((2R,3S,4R,5R)-5-(6-chloro-4-(cyclopentylamino)-1H-pyrazolo[3,4-d]pyrimidin-1-yl)-3,4-dihydroxytetrahydrofuran-2-yl)methoxy)-2-phosphonoacetic acid] gave a pIC50 of at least 7.00.

On to `CNc1nc(Cl)nc2c1cnn2[C@@H]1O[C@H](COC(CO)P(=O)(O)O)[C@@H](O)[C@H]1O` (stereo partly drawn) [Example 29, (1-(((2R,3S,4R,5R)-5-(6-chloro-4-(methylamino)-1H-pyrazolo[3,4-d]pyrimidin-1-yl)-3,4-dihydroxytetrahydrofuran-2-yl)methoxy)-2-hydroxyethyl)phosphonic acid], for which the pIC50 was at least 7.00.

Take `O=P(O)(O)C(CO)OC[C@H]1O[C@@H](n2ncc3c(NCC4CC4)nc(Cl)nc32)[C@H](O)[C@@H]1O` (stereo partly drawn) [Example 30, (1-(((2R,3S,4R,5R)-5-(6-chloro-4-((cyclopropylmethyl)amino)-1H-pyrazolo[3,4-d]pyrimidin-1-yl)-3,4-dihydroxytetrahydrofuran-2-yl)methoxy)-2-hydroxyethyl)phosphonic acid]: the negative logarithm of the IC50 (pIC50) was at least 7.00.

Compound `COCC(OC[C@H]1O[C@@H](n2ncc3c(NC4CCCC4)nc(Cl)nc32)[C@H](O)[C@@H]1O)P(=O)(O)O` (stereo partly drawn) [Example 31, (1-(((2R,3S,4R,5R)-5-(6-chloro-4-(cyclopentylamino)-1H-pyrazolo[3,4-d]pyrimidin-1-yl)-3,4-dihydroxytetrahydrofuran-2-yl)methoxy)-2-methoxyethyl)phosphonic acid] showed a pIC50 of at least 7.00.

Usually pIC50 stands for the negative decadic logarithm of the IC50, by convention in mol/L.

The record behind these values is patent publication US11325938B2, “CD73 inhibitors” (ORIC Pharmaceuticals, Inc., priority 2018, dated 2022).
